A short description of series [1]: In vitro metabolism with human liver microsomes or cytosolic proteins and cofactors (UHPLC-QTOF-MS). To be noted: for Level of verbascoside during incubation: 10 µM. The class given is in vitro ADME. As to the method: From the incubation mixture, 450 µL acetonitrile was added to 150 µL of the samples to stop the reaction at time points of 0, 10, 20, 40, and 60 min. The CYP incubation mixture contained 20% NADPH regenerating system, whereas the glucuronidation incubation mixture contained 0.5 mM UDP-glucuronic acid with 5 mM MgCl2. The sulfonation incubation mixture contained 10 µM PAPS, […], and 500 µg cytosolic protein instead of microsomes, and the methylation incubation mixture contained 0.5 mM S-adenosylmethionine, 5 mM MgCl2, and 500 µg cytosolic protein instead of microsomes. […] The hydrolysis reaction was studied with an incubation mixture that contained 400 µg microsomal protein, or 500 µg cytosolic proteins, and 5 mM MgCl2. A sample with the absence of any enzyme was considered as the blank sample. After stopping the reactions, the samples were centrifuged for 20 min at 10,000× g and stored at −80 °C for analysis by the UHPLC-QTOF-MS system (Agilent Technologies, Waldbronn, Karlsruhe, Germany), which consisted of a 1290 LC system, a Jetstream ESI source, and a 6540 UHD accurate mass quadrupole time-of-flight (QTOF) mass spectrometry. The sample tray was kept at 4 °C during these analyses. […] Two microliters of sample were injected onto a column (Zorbax Eclipse XDB-C8, 2.1 × 100mm, 1.8 µm, Agilent Technologies, Palo Alto, CA, USA) that was kept at 50 °C. Mobile phases, delivered at 0.4 mL/min, consisted of water (eluent A) and methanol (eluent B), both containing 0.1% (v/v) of formic acid. The gradient employed was as follows: 2%→100% B (0–10 min); 100% B (10–14.5 min); 100%→2% B (14.5–14.51 min); and 2% B (14.51–16.50 min).
A Jetstream ESI source, operated in negative ionization mode, used the following conditions: drying gas temperature 325 °C and a flow of 10 L/min, sheath gas temperature 350 °C and a flow of 11 L/min, nebulizer pressure 45 psi, capillary voltage 3500 V, nozzle voltage 1000 V, fragmentary voltage 100 V, and skimmer 45 V. Nitrogen was used as the instrument gas. For data acquisition, a 2 GHz extended dynamic range mode was used from m/z 20 to m/z 1600. Data were collected in the centroid mode at an acquisition rate of 1.67 spectra/s with an abundance threshold of 150. The TOF was calibrated on a daily basis and subsequently operated at a high accuracy (<2 ppm). Continuous mass axis calibration was performed by monitoring two reference ions from an infusion solution throughout the runs. The reference ions were m/z 112.985587 and m/z 966.000725. Identification of the metabolites found in the treatments was based on accurate mass and isotope information (i.e., ratios, abundances, and spacing). The software for the identification of metabolites used was MassHunter Metabolite ID B.04.00 (Agilent Technologies, Santa Clara, CA, USA).
For orientation: Microsomes from liver hold many membrane-bound enzymes, among them those of drug oxidation.

Series [2] can be described thus: DPPH radical scavenging assay. The conditions noted are these: DPPH in ethanol, 30 min. The class given is biochemical. As to the method:
Ascorbic acid was serially diluted to a concentration range of 0.78–100 µg/mL. Ethanol (10%) was used as a blank. Ninety microliters of a […] DPPH (2,2-diphenyl-1-picrylhydrazyl) in ethanol were added to each well. The plates were incubated for 30 min and covered in a layer of foil. Color controls (negative controls) were prepared in the exact same manner as above, but distilled water was added to each well instead of DPPH. The absorbances were measured at a wavelength of 515 nm using a BIO-TEK Power-Wave XS multiplate reader (BIO-TEK Instruments, Winooski, VT, USA). From the absorbances an IC50 value was determined.
(DPPH is a stable violet radical that fades when it is reduced.)

Series [3] has as its system HepG2 cell line. Set-up: method as in Etemad et al. (2015) [19]. To be noted: after 24 and 72 h, highest concentration tested; ref Etemad et al. (2015) [19]; read-out: HepG2 cellular toxicity IC50; cited from earlier work.

We go through one compound from paper PMC6600574 (Molecules, 2019).

In general, IC50 refers to the concentration that inhibits the measured activity by half. With `C[C@@H]1O[C@@H](O[C@@H]2[C@@H](O)[C@H](OCCc3ccc(O)c(O)c3)O[C@H](CO)[C@H]2OC(=O)/C=C/c2ccc(O)c(O)c2)[C@H](O)[C@H](O)[C@H]1O` [Verbascoside], the “Level of verbascoside during incubation” value is “decreased” in series [1] (human liver cytosolic protein, PAPS, up to 60 min); “decreased” in series [1] (human liver cytosolic protein, S-adenosylmethionine, up to 60 min); “no decrease” in series [1] (human liver microsomes, NADPH oxidation incubation); “decreased” in series [1] (human liver microsomes, UDP-glucuronic acid, up to 60 min); “no decrease” in series [1] (hydrolysis incubation, microsomal or cytosolic protein without cofactor). In addition, the Metabolites formed result in series [1] (PAPS incubation, levels increased up to 20 min) was “three different sulphate conjugates”; in series [1] (S-adenosylmethionine incubation, levels increased up to 60 min), “five different methylated conjugates”; in series [1] (UDP-glucuronic acid incubation with human liver microsomes), “No glucuronide conjugate”. Besides, the IC50 was 2500 ± 20 nM in series [2] and over 400000 nM in series [3].
